Results reported in US20250319292A1, “MICRONEEDLES AND METHODS FOR TREATING THE SKIN” (THE BRIGHAM AND WOMEN'S HOSPITAL, INC., priority 2021, published 2025).

B1: soluble CCL22: C-C motif chemokine 22 added in solution, from PeproTech (protein, UniProt O00626 25-93, looked up)
C-C motif chemokine 22: GPYGANMEDSVCCRDYVRYRLPLRVVKHFYWTSDSCPRPGVVLLTFRDKEICADPRVPWVKMILNKLSQ

What was measured:
[1] = test system: THP-1 cells; assay: Cytotoxicity studies of digestion media (TCEP); type: cell-based; conditions: TCEP 0.1 mM to 100 mM, 10 minutes
Description: Human monocyte THP-1 cells (ATTC) were maintained in RPMI 1640 supplemented with 10% FBS, 2 mM L-glutamine, 25 mM HEPES, 100 μg/mL Normocin™ (InvivoGen) and 100 U/mL penicillin and 100 μg/mL streptomycin. Cell lines were maintained in a humidified incubator at 37° C., 5% CO2.
THP-1 cells were incubated with different concentrations of digestion media (TCEP solution in supplemented media), ranging from 0.1 mM to 100 mM, for 10 minutes. Thereafter, digestion media was removed, and cells were stained using the LIVE/DEAD™ fixable Violet Dead Cell Stain Kit (Thermo Fisher Scientific, USA) following the manufacturer's guidelines. Dead cells were analyzed by flow cytometry using a BD LSRFortessa™ flow cytometer.

[2] = test system: Tregs; assay: CCL22-dependent trans-well migration assay; type: cell-based, C57BL/6 mice; conditions: 0, 10 and 100 ng/ml, 3 hours, CD3+ T cells
Description: Recruitment of Tregs as a function of CCL22 was assessed in a 24-well plate containing a 5 μm-pore polycarbonate Transwell® filter system (Costar Transwell® permeable support #3421). MNs loaded with incremental amounts of CCL22 ([…] and 100 ng) or equivalent dose of soluble CCL22 were added in the receiver wells and incubated at 37° C. for 1 hour. 5×10^5 CD3^+ T cells were magnetically isolated from C57BL/6 mice using mouse T cell isolation kit (EasySep™, #19851) and resuspended in full culture media and added to the top wells. Cells were then incubated at 37° C. and 5% CO2 for 3 hours. Cells in the receiver well were then harvested and stained with Fixed viability dye, anti-CD3, CD4, CD25, and Foxp3 antibodies and analyzed by flow cytometry.
Next, the biological activity of chemokines when loaded in the MNs was examined. Specifically, the ability of CCL22 to mediate Tregs recruitment when delivered using the MN platform through a trans-well migration assay was studied. Briefly, ranging concentrations of CCL22, either MN-doped or soluble, were incubated with CD3^+ T cells, and the number of migrated Tregs was analyzed after 3 hours of incubation by flow cytometry. […] This can stem from the maintenance of a higher gradient of CCL22 when released from the MNs compared to soluble CCL22 (FIG. 3C).

Molecule | cell viability [1] | Tregs migration as a function of CCL22 concentration [2]
O=C(O)CCP(CCC(=O)O)CCC(=O)O [TCEP, tris (2-carboxyethyl) phosphine] | highly biocompatible and did not affect cell viability | 
B1 |  | dose-dependent increase of Tregs migration
